Experiments:
[1] = tested on: Methionine--tRNA ligase (Enterococcus faecalis); test: Inhibition of Enterococci faecalis methionyl-tRNA synthetase (EfMetRS); Inactive
[2] = biological target: T1, Methionine--tRNA ligase, cytoplasmic (Homo sapiens) (UniProt P56192); test: Inhibition of human methionyl-tRNA synthetase (fMetRS) at the concentration of 10 uM
T1 sequence (whole entry): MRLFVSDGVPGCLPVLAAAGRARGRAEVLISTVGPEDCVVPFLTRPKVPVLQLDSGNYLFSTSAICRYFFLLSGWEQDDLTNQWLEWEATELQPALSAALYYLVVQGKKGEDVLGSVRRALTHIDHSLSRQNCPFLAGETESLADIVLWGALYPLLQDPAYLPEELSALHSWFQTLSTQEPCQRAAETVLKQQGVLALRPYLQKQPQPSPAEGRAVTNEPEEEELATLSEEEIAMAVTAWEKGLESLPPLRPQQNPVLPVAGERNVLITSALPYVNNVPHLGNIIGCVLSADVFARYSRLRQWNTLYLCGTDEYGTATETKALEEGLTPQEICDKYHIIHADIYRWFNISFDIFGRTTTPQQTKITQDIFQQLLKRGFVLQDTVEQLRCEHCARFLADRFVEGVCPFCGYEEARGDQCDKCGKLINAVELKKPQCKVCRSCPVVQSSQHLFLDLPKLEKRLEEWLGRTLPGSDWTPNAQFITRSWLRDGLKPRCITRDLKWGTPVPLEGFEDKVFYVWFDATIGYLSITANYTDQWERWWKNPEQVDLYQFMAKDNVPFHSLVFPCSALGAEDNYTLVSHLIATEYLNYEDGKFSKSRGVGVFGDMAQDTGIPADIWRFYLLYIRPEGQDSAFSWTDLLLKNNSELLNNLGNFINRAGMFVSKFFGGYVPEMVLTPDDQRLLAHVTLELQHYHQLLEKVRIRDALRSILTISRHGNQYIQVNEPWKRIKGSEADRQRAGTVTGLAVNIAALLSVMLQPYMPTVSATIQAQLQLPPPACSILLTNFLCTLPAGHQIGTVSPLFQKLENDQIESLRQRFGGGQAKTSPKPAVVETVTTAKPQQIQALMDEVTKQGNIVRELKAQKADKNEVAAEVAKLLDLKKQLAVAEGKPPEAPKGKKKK

[3] = tested on: Methionine--tRNA ligase (Staphylococcus aureus); test: Inhibition of Staphylococcus aureus methionyl-tRNA synthetase (SaMetRS) at the concentration of 10 uM
[4] = tested on: Methionine--tRNA ligase (Enterococcus faecalis); test: Inhibition of Enterococci faecalis methionyl-tRNA synthetase (EfMetRS) at the concentration of 10 uM
[5] = biological target: T2, Methionine--tRNA ligase, cytoplasmic (Homo sapiens, UniProt P56192); test: Inhibition of human methionyl-tRNA synthetase (fMetRS)
T2 sequence (P56192 whole entry): T1 sequence (whole entry)

Row | Structure (SMILES) | IC50 [1] | inhibition [2] [%] | inhibition [3] [%] | inhibition [4] [%] | IC50 [5] [µM]
1 | NC(=O)[C@H](Cc1ccc(O)cc1)NC(=O)C1CCCN(/C=C2\N=C(c3ccc(Br)cc3)OC2=O)C1 (some centres undefined) | Not Active | 23 | 39 |  | 
2 | NC(=O)[C@H](Cc1ccc(O)cc1)NC(=O)C1CCCCN1/C=C1\N=C(c2ccc(Cl)cc2Cl)OC1=O (some centres undefined) |  | 88 | 73 | 60 | 
3 | NC(=O)[C@H](Cc1ccc(O)cc1)NC(=O)[C@@H]1CCCN1/C=C1\N=C(c2ccc(Cl)cc2Cl)OC1=O |  |  |  |  | > 100
4 | NC(=O)[C@H](Cc1ccc(O)cc1)NC(=O)C1CCN(/C=C2\N=C(c3ccc(Br)cc3)OC2=O)CC1 |  | 6 | 1 | 7 | 
5 | CCC/C(=C1/N=C(c2ccc(Br)cc2)OC1=O)N1CC[C@H]1C(=O)N[C@@H](Cc1ccc(O)cc1)C(N)=O |  |  |  |  | > 100
6 | NC(=O)[C@H](Cc1ccc(O)cc1)NC(=O)[C@@H]1CCN1/C=C1\N=C(c2ccc(Br)cc2)OC1=O |  |  |  |  | > 100
7 | NC(=O)[C@H](Cc1ccc(O)cc1)NC(=O)[C@@H]1CCCN1/C=C1\N=C(c2ccc(Br)cc2)OC1=O |  | 5 |  |  | 
8 | NC(=O)[C@H](Cc1ccc(O)cc1)NC(=O)C1CCCCN1/C=C1\N=C(c2ccc(Br)cc2)OC1=O (some centres undefined) |  | 19 | 55 | 7 | 
9 | CC/C(=C1/N=C(c2ccc(Br)cc2)OC1=O)N1CCC[C@H]1C(=O)N[C@@H](Cc1ccc(O)cc1)C(N)=O |  |  |  |  | > 100
10 | NC(=O)[C@H](Cc1ccc(O)cc1)NC(=O)C1CCCN(/C=C2\N=C(c3ccc(Cl)cc3Cl)OC2=O)C1 (some centres undefined) |  | 20 | 43 | 2 | 
11 | CCC/C(=C1/N=C(c2ccc(Br)cc2)OC1=O)N1CCC[C@H]1C(=O)N[C@@H](Cc1ccc(O)cc1)C(N)=O |  |  |  |  | > 100
12 | NC(=O)[C@H](Cc1ccc(O)cc1)NC(=O)C1CCN(/C=C2\N=C(c3ccc(Cl)cc3Cl)OC2=O)CC1 |  | 5 | 3 | 5 | 

Reference: ChEMBL document CHEMBL1147517, “Potent and selective inhibitors of bacterial methionyl tRNA synthetase derived from an oxazolone-dipeptide scaffold” (Bioorg Med Chem Lett, 2004)
